Experimental data as given in patent US12357596B2, “Compounds for prevention and treatment of obesity and related disorders” (ABREXA PHARMACEUTICALS, INC., priority 2019, dated 2025).

Experiment: 28-day once-daily oral gavage toxicity study with 14-day recovery (body weight, food consumption, clinical and anatomic pathology)
Type: in vivo
Conditions: for Decrease of group mean food consumption compared to Group 1 controls: Days 21 to 28
Experimental: J147 or vehicle was administered once daily to Sprague-Dawley rats via oral gavage for 28 consecutive days at a daily dose of 0, 30, 100 or 300 mg/kg. J174 was prepared in a vehicle formulation comprising 5% ethanol, 5% DMSO and 90% corn oil (v/v/v). Certified rodent diet and water was available ad libitum. Groups 1-4 contained 10 animals/sex/group. Groups 1 (control) and 4 (high dose) also included an additional 5 animals/sex/group for use as recovery animals. The recovery animals were maintained on study for a 14-day postdosing recovery period. Animals in Groups 1-4 were monitored for morbidity and mortality, clinical signs, detailed clinical observations, body weight, food consumption, ophthalmologic parameters, neurobehavioral assessment consisting of a Functional Observational Battery (FOB) and a motor activity test, hematology, coagulation, serum chemistry, and urinalysis parameters. Postmortem assessment included necropsy, measurement of selected organ weights, and microscopic evaluation of a standard set of tissues. Plasma samples for bioanalysis were collected on Days 1 and 28 from satellite toxicokinetic animals in Groups 5 through 8. Animals in these groups were euthanized following the last blood sampling and carcasses were discarded without examination. The study protocol is shown below in Table 1.

[1] = Group 2F: female rats, 30 mg/kg/day
[2] = Group 2M: male rats, 30 mg/kg/day
[3] = Group 3F: female rats, 100 mg/kg/day
[4] = Group 3M: male rats, 100 mg/kg/day
[5] = Group 4F: female rats, 300 mg/kg/day
[6] = Group 4M: male rats, 300 mg/kg/day
[7] = female rats, 30 mg/kg/day, Day 7 → 14
[8] = female rats, 30 mg/kg/day, Day 14 → 21
[9] = female rats, 30 mg/kg/day, Day 21 → 28
[10] = female rats, 30 mg/kg/day, Day −1 → 7
[11] = female rats, 100 mg/kg/day, Day 7 → 14
[12] = female rats, 100 mg/kg/day, Day 14 → 21
[13] = female rats, 100 mg/kg/day, Day 21 → 28
[14] = female rats, 100 mg/kg/day, Day 28
[15] = female rats, 100 mg/kg/day, Day −1 → 7
[16] = female rats, 300 mg/kg/day, Day 7 → 14
[17] = female rats, 300 mg/kg/day, Day 14 → 21
[18] = female rats, 300 mg/kg/day, Day 21 → 28
[19] = female rats, 300 mg/kg/day, Day 28
[20] = female rats, 300 mg/kg/day, Day −1 → 7
[21] = male rats, 30 mg/kg/day, Day 7 → 14

SMILES: COc1cccc(/C=N/N(C(=O)C(F)(F)F)c2ccc(C)cc2C)c1 [J147]
- Terminal Body Weight % Diff from Control [1]: −2.4%
- Terminal Body Weight (mean) [1]: 238.10 g
- Terminal Body Weight % Diff from Control [2]: +1.4%
- Terminal Body Weight (mean) [2]: 443.50 g
- Terminal Body Weight % Diff from Control [3]: −7.6%
- Terminal Body Weight (mean) [3]: 225.43 g
- Terminal Body Weight % Diff from Control [4]: −5.69%
- Terminal Body Weight (mean) [4]: 412.50 g
- Terminal Body Weight % Diff from Control [5]: −14.23%
- Terminal Body Weight (mean) [5]: 209.24 g
- Terminal Body Weight % Diff from Control [6]: −17.91%
- Terminal Body Weight (mean) [6]: 359.05 g
- NOAEL at 28 days (both sexes, Sprague-Dawley, rat, in vivo, po): 30 mg/kg/day
- Increase in platelet counts (female rats, 30 mg/kg/day): 3.8%
- Mean Bodyweight (female rats, 30 mg/kg/day, Day 7): 220.64 g
- Food Mean Consumption [7]: 14.89 g/animal/day
- Mean Bodyweight Gain [7]: 13.06 g
- Mean Bodyweight (female rats, 30 mg/kg/day, Day 14): 233.70 g
- Food Mean Consumption [8]: 15.47 g/animal/day
- Mean Bodyweight Gain [8]: 9.45 g
- Mean Bodyweight (female rats, 30 mg/kg/day, Day 21): 243.15 g
- Food Mean Consumption [9]: 15.12 g/animal/day
- Mean Bodyweight Gain [9]: 5.08 g
- Mean Bodyweight (female rats, 30 mg/kg/day, Day 28): 248.23 g
- Mean Bodyweight (female rats, 30 mg/kg/day, Day −1 (pre-dose)): 203.02 g
- Food Mean Consumption [10]: 15.49 g/animal/day
- Mean Bodyweight Gain [10]: 17.62 g
- Mean Bodyweight Gain (female rats, 30 mg/kg/day, Day −1 → 28): 45.21 g
- Mean Bodyweight (female rats, 30 mg/kg/day, Day −3 (pre-dose)): 200.70 g
- Mean Bodyweight (female rats, 100 mg/kg/day, Day 7): 215.78 g
- Food Mean Consumption [11]: 13.85 d^4 g/animal/day
- Mean Bodyweight Gain [11]: 9.99 d^3 g
- Mean Bodyweight (female rats, 100 mg/kg/day, Day 14): 225.77 d^2 g
- Food Mean Consumption [12]: 14.70 g/animal/day
- Mean Bodyweight Gain [12]: 7.02 g
- Mean Bodyweight (female rats, 100 mg/kg/day, Day 21): 232.79 d^2 g
- Food Mean Consumption [13]: 13.98 g/animal/day
- Mean Bodyweight Gain [13]: 1.60 g
- Decrease of group mean body weight compared to Group 1 controls [14]: 6.9%
- Mean Bodyweight [14]: 234.39 g
- Mean Bodyweight (female rats, 100 mg/kg/day, Day −1 (pre-dose)): 206.05 g
- Food Mean Consumption [15]: 14.33 dd^3 g/animal/day
- Mean Bodyweight Gain [15]: 9.73 d^3 g
- Mean Bodyweight Gain (female rats, 100 mg/kg/day, Day −1 → 28): 28.34 dd^4 g
- Mean Bodyweight (female rats, 100 mg/kg/day, Day −3 (pre-dose)): 201.20 g
- Decrease of group mean food consumption compared to Group 1 controls (female rats, 100 mg/kg/day): 8.6%
- Food Mean Consumption (female rats, 300 mg/kg/day for 28 days, Day 28 → 35 (recovery)): 22.30 d^4 g/animal/day
- Mean Bodyweight Gain (female rats, 300 mg/kg/day for 28 days, Day 28 → 42 (recovery)): 32.82 g
- Mean Bodyweight (female rats, 300 mg/kg/day for 28 days, Day 35 (recovery)): 249.62 g
- Food Mean Consumption (female rats, 300 mg/kg/day for 28 days, Day 35 → 42 (recovery)): 20.22 g/animal/day
- Mean Bodyweight (female rats, 300 mg/kg/day for 28 days, Day 42 (recovery)): 258.24 g
- Mean Bodyweight (female rats, 300 mg/kg/day, Day 7): 214.74 g
- Food Mean Consumption [16]: 13.81 dd^3 g/animal/day
- Mean Bodyweight Gain [16]: 8.25 dd^4 g
- Mean Bodyweight (female rats, 300 mg/kg/day, Day 14): 222.99 dd^3 g
- Food Mean Consumption [17]: 14.73 g/animal/day
- Mean Bodyweight Gain [17]: 5.03 dd^4 g
- Mean Bodyweight (female rats, 300 mg/kg/day, Day 21): 228.03 dd^3 g
- Food Mean Consumption [18]: 12.91 d^4 g/animal/day
- Mean Bodyweight Gain [18]: −7.49 d^3 g
- Decrease of group mean body weight compared to Group 1 controls [19]: 12.4%
- Mean Bodyweight [19]: 220.53 dd^3 g
- Mean Bodyweight (female rats, 300 mg/kg/day, Day −1 (pre-dose)): 207.85 g
- Food Mean Consumption [20]: 13.75 dd^3 g/animal/day
- Mean Bodyweight Gain [20]: 6.89 dd^4 g
- Mean Bodyweight Gain (female rats, 300 mg/kg/day, Day −1 → 28): 12.68 dd^4 g
- Mean Bodyweight (female rats, 300 mg/kg/day, Day −3 (pre-dose)): 200.70 g
- Decrease of group mean food consumption compared to Group 1 controls (female rats, 300 mg/kg/day): 15.6%
- Group mean weight gain from Day −1 to 28 (female rats, Group 2 (30 mg/kg/day)): 45 grams
- Group mean weight gain from Day −1 to 28 (female rats, Group 3 (100 mg/kg/day)): 28 grams
- Group mean weight gain from Day −1 to 28 (female rats, Group 4 (300 mg/kg/day)): 13 grams
- Mean Bodyweight (male rats, 30 mg/kg/day, Day 7): 338.91 g
- Mean Bodyweight Gain [21]: 52.38 g
- Mean Food Consumption [21]: 24.85
- Mean Bodyweight (male rats, 30 mg/kg/day, Day 14): 391.29 g
